According to patent publication US12565673B2, “Methods for the design of nonallosteric sirtuin activating compounds” (Chakrabarti Advanced Technology, LLC, priority 2020, dated 2026):
pKd: −log10 of the molar value.

Target: T1, hSirt3^102-399 (Homo sapiens, UniProt Q9NTG7)
T1 construct: hSirt3^102-399 was expressed in E. coli Arctic Express (DE3) cells; His-tag (only implied by the HisTrap / imidazole purification); made in house; host or cells: E. coli Arctic Express (DE3)
T1 sequence (Q9NTG7 102-399): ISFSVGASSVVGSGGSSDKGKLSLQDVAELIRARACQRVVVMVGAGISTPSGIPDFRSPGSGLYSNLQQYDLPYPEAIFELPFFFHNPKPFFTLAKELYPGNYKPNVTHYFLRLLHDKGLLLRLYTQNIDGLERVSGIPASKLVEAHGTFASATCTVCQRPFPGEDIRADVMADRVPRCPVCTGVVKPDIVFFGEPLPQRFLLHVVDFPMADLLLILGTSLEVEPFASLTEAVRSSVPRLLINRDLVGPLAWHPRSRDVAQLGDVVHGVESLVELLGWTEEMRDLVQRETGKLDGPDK
Assay: hSirt3 ligand binding assay by microscale thermophoresis (MST)
Conditions: Sirt3.Ac-MnSOD complex (FIG. 9)
Experimental: The binding affinities of ligands to complexes in the catalytic mechanism of SIRT3/MnSOD peptide substrate were measured using microscale thermophoresis (MST; FIG. 9, FIG. 10).
Briefly, the protein conjugation was done in 1×PBS pH 7.4, 0.05% Pluronic F-127, and the labeled protein was buffer exchanged into 47 mM Tris-HCl pH 8.0, 129 mM NaCl, 2.5 mM KCl, 0.94 mM MgCl2, 5% DMSO, 0.05% Tween-20. We used 2 nM labeled hSirt3 and titrated with varying concentrations of the modulators in the absence and presence of various concentrations of substrates, products and intermediates. The thermophoresis was measured (excitation/emission 653/672 nm) using a Monolith NT. […] Dissociation constants (Kd) were determined using GraFit7 (Erithacus Software) by nonlinear fitting.

pKd: > 5.00
SMILES: C=CCc1ccc(O)c(-c2ccc(O)c(CC=C)c2)c1 [HKL, 5, 3′-Diallyl-2, 4′-dihydroxybiphenyl]
